{"source": "patent US20260115267A1", "about": "“METHODS OF USING ANTI-EGF ANTIBODIES TO AUGMENT THE ACTIVITY OF BRAF AND KRAS INHIBITORS” (In3Bio Ltd., priority 2021, published 2026)", "key": {"[1]": {"tested_on": "pEGFR(Tyr1068), pPRAS40(Thr 246) in HT29 cells", "assay": "Western blot of total and phosphorylated EGFR and PRAS40 in HT29 cells with EGF, 2 hours (FIG. 4)", "format": "cell-based", "settings": "cetuximab 1/75, encorafenib 0.05 μM", "text": "C in the first lane stands for control, non-treated cell line sample. The second lane is the same control cell receiving EGF.\nC in the first lane stands for control, non-treated cell line sample. Second lane is same control cell receiving EGF."}, "HT29 cells": {"tested_on": "HT29 cells", "assay": "Emergence of resistance to encorafenib in HT29 cells (FIGS. 5-8)", "format": "cell-based", "description": "FIGS. 5A-B are graphs that show the emergence of resistance to Encorafenib in the HT29 cell line across an incubation time of 3 weeks and measured by the percentage of cell viability. Cells were treated with 5 μM Encorafenib (FIG. 5A) or 10 μM Encorafenib (FIG. 5B) and incubated with EGF at 0.0 ng/mL, 0.1 ng/mL, Ing/mL, and 10 ng/mL.\nFIGS. 6A-B are graphs that show the emergence of resistance to Encorafenib in the HT29 cell line across an incubation time of 15 weeks and measured by the percentage of cell viability.\nFIGS. 7A-B are graphs that show the emergence of resistance to Encorafenib in the HT29 cell line across an incubation time of 15 weeks and measured by the percentage of cell viability. […] All tests were conducted at 1.0 ng/ml EGF\nFIGS. 8A-B are graphs that show the emergence of resistance to 10 μM Encorafenib in the HT29 cell line with an incubation time of 90 days and measured by the percentage of tumor cell-free wells.\nThe effect of cells incubated with 5 μM encorafenib and treated with different concentrations of EGF were tested for cell viability during 3 weeks of incubation.\nNext, the effects on cells incubated with 0.1 ng/mL EGF were tested.\nThe effects on cells incubated with 1.0 ng/mL EGF were tested over 15 weeks. The same conditions were repeated as in FIGS. 6A-B with the only difference being the 10-fold increase in EGF (FIG. 7A).\nLastly, the effects of HT29 cells incubated with 0.1 ng/ml and 1.0 ng/mLEGF were tested over a course of 90 days (FIGS. 8A-B)."}, "[2]": {"tested_on": "EGFR-mut NSCLC cell lines", "settings": "cited from earlier work"}, "[3]": {"settings": "clinical data, BRAF V600E mutation-positive advanced melanoma; cited from earlier work"}, "[4]": {"settings": "10 μM versus 5 μM encorafenib, EGF 0.0-10 ng/mL, 3 weeks"}}, "data": [{"compound": "COC(=O)N[C@@H](C)CNc1nccc(-c2cn(C(C)C)nc2-c2cc(Cl)cc(NS(C)(=O)=O)c2F)n1", "note": "[Encorafenib]", "values": [{"measurement": "inhibition of pPRASO", "setting": "[1]", "result": "did not inhibit"}, {"measurement": "growth of positive cells (emergence of resistance)", "setting": "HT29 cells; 0.1 ng/mL EGF, encorafenib 10 μM, 15 weeks", "result": "allows the growth of positive cells to a much greater extent"}, {"measurement": "positive growth (emergence of resistance)", "setting": "HT29 cells; 1.0 ng/mL EGF, 15 weeks", "result": "resistance"}, {"measurement": "proliferation / percentage of viable cells (positive wells)", "setting": "HT29 cells; [4]", "result": "substantially lower"}, {"measurement": "time point at which resistance began", "setting": "HT29 cells; [4]", "result": "earlier time point"}, {"measurement": "proliferation / percentage of viable cells (positive wells)", "setting": "HT29 cells; 10 μM versus 5 μM encorafenib, EGF 0.0-10 ng/mL, 3 weeks, listed as encorafenib", "result": "lower proliferation of cells than with 5 μM encorafenib, but not by much"}]}, {"compound": "C=CC(=O)Nc1cc(Nc2nccc(-c3cn(C)c4ccccc34)n2)c(OC)cc1N(C)CCN(C)C", "note": "[osimertinib]", "values": [{"measurement": "antiproliferative effects of the TKI when EGF is present", "setting": "[2]", "result": "significantly reduced"}]}, {"compound": "CC(C)(C)c1nc(-c2cccc(NS(=O)(=O)c3c(F)cccc3F)c2F)c(-c2ccnc(N)n2)s1", "note": "[dabrafenib, Dabrafenib]", "values": [{"measurement": "time to occurrence of resistance", "setting": "[3]", "result": "within six to seven months"}]}]}
